This assay has as its target T1, CDK2 (Homo sapiens, UniProt P24941).
T1 construct: CDK2/GST-Cyclin E kinase complex produced in baculovirus expression system; with Cyclin E (GST-Cyclin E)
The assay is described as follows: radiometric kinase assay (gamma-32P-ATP, histone H1 substrate) with purified recombinant CDK2/cyclin E. The format is biochemical.

Each structure is given as a SMILES string.

Usually IC50 stands for the concentration at which inhibition is half-maximal. Regarding `O=c1[nH]c2c(nc3ccccn32)c2ccccc12` [13-1-a], the IC50 was approximately 100 µM.

As to `O=c1[nH]c2c(nc3ccccn32)c2cccc(O)c12` [13-1-e], the IC50 was 1 to 2 µM.
